# Target: T1, Aldo-keto reductase family 1 member C3 (Homo sapiens, UniProt P42330)
# T1 sequence (P42330 whole entry): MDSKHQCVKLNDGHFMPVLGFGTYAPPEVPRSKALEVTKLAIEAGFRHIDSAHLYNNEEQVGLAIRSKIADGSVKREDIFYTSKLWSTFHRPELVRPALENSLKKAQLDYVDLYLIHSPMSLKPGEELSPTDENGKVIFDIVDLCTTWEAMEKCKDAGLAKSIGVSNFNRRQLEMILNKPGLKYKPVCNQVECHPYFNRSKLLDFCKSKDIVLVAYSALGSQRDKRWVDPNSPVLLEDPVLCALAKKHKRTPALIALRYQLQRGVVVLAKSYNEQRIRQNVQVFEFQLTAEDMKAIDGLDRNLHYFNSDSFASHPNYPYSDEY
# Assay: Inhibition of AKR1C3 by fluorimetric method
row,Compound,IC50
1,O=C(O)c1ccccc1Nc1cccc(C(F)(F)F)c1 [FLUFENAMIC ACID],51 nM
2,O=C(O)c1cccc(Nc2ccc(C(F)(F)F)cc2)c1,62 nM
3,Cc1ccc(Nc2cccc(C(=O)O)c2)cc1,700 nM
4,COc1ccc(Nc2cccc(C(=O)O)c2)cc1,490 nM
5,O=C(O)c1cccc(Nc2ccc(Cl)cc2)c1,130 nM
